Calls of active or inactive are those of the source.
Experiments:
[1] = HGIII-sPLA2 enzyme inhibition potency – biochemical, QFRET, IC50, dose response (AID 743457);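 also: green fluorescence rise as the enzyme cleaves BODIPY PC-A2 in liposomes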
[2] = target: T1, Fructose-bisphosphate aldolase (Mycobacterium tuberculosis, UniProt P9WQA3); assay: Fluorescence-based biochemical high throughput dose response assay for inhibitors of the fructose-bisphosphate aldolase (FBA) of M. tuberculosis.; format: functional
T1 sequence (P9WQA3 whole entry): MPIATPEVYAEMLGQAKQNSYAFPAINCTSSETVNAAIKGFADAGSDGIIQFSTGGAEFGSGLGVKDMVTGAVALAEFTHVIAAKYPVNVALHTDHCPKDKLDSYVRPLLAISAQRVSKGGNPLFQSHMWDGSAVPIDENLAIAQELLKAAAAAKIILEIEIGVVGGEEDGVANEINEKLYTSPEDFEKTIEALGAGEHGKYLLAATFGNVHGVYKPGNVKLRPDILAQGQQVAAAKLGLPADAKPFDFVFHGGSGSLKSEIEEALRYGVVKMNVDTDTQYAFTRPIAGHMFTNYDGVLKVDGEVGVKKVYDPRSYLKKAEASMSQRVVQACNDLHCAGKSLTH

[3] = target: Glyceraldehyde-3-phosphate dehydrogenase (Homo sapiens, UniProt P04406)
[4] = target: T2, Rac GTPase-activating protein 1 (Homo sapiens, UniProt Q9H0H5); assay: blockers of MgcRacGAP-driven Rac1 GTP hydrolysis – biochemical, ADP Hunter fluorescence, primary and confirmatory, confirmation (AID 624330); format: functional
T2 sequence (Q9H0H5 whole entry): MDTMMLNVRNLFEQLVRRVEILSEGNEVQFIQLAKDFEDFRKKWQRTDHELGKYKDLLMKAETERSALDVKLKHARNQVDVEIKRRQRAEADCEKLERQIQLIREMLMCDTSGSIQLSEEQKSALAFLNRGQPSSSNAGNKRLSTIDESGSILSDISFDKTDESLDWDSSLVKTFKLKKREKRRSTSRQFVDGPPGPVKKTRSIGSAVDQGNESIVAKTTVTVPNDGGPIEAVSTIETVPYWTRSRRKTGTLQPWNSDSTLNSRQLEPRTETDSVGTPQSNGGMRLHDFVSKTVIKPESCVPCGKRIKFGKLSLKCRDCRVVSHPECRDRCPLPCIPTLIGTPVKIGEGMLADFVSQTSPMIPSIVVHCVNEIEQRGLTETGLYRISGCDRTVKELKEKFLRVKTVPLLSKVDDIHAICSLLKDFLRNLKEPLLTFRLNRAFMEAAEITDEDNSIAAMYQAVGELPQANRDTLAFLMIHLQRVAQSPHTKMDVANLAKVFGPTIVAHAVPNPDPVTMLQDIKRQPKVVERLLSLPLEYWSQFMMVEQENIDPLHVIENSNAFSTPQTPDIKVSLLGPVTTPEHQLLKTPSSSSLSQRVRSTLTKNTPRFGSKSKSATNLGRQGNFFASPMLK

[5] = viability loss in HeLa cells – cytotoxicity control for MgcRacGAP inhibitor project, dose response (AID 624300); format: functional
[6] = target: T3, Long-chain-fatty-acid--AMP ligase FadD28 (Mycobacterium tuberculosis, UniProt P9WQ59); assay: Fluorescence polarization aasay to screen for inhibitors that compete for the binding of FadD28 to a bisubstrate Measured in Biochemical System Using Plate Reader - 2147-01_Inhibitor_Dose_CherryPick_Activity.; format: functional, Mycobacterium tuberculosis H37Rv
T3 sequence (P9WQ59 whole entry): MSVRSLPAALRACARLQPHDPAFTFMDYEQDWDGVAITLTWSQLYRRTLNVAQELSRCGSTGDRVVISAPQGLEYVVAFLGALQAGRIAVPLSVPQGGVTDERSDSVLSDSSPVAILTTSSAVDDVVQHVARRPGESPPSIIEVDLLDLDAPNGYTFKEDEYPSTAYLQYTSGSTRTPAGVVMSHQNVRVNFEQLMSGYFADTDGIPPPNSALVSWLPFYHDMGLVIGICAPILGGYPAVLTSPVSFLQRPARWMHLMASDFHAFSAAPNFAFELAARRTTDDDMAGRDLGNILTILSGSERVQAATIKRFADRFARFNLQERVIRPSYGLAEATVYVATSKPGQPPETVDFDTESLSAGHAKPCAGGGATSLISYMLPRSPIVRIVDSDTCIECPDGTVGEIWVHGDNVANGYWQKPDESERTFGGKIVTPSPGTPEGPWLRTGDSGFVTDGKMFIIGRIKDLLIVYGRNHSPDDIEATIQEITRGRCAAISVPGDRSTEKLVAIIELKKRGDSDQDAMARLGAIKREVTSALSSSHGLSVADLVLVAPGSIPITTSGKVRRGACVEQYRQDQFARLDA

[7] = blockers of bursicon-stimulated LGR2 cAMP reporter – cell-based, HEK293, CRE-luciferase reporter, cherry pick, set 2, dose response (AID 743343); format: functional;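 also: transfected cells were stimulated with diluted bursicon conditioned medium after compound addition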
[8] = blockade of melanocortin 4 receptor signaling – cell-based, plate reader, cherry pick, counter-screen for LGR2 antagonist project, dose response (AID 743444); format: functional;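 also: transfected HEK 293 cells stimulated with alpha-MSH peptide; potency of inhibitors of the alpha-MSH evoked signal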
[9] = A549 cell cytotoxicity, dose response, cytotoxicity control, plate reader, cherry-pick, antagonist series (AID 743412); format: functional, cell-based
[10] = target: T4, Oxysterols receptor LXR-beta (Homo sapiens, UniProt P55055); format: functional, cell-based;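 also: agonist activity at LXR measured by a cell-based luminescence readout across a dose range, run as a counterscreen for daf-12 agonists; HEK293 cells with Gal4-LXR fusion and GAL4-driven luciferase reporter; potency for activation of Gal4-LXR reporter so compounds are agonists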
T4 sequence (P55055 whole entry): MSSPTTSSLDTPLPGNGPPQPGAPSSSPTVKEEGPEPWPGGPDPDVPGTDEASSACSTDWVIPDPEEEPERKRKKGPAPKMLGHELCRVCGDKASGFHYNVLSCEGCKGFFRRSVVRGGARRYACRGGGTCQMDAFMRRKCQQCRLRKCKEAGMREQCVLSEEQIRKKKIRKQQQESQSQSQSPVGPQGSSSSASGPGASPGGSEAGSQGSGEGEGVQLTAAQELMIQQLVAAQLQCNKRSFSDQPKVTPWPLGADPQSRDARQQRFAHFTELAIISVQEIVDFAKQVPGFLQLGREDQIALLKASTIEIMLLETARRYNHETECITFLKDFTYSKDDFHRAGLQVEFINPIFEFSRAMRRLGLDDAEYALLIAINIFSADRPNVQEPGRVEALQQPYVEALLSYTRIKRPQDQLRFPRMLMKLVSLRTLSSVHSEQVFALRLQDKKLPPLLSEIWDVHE

[11] = target: Photoreceptor-specific nuclear receptor (Homo sapiens, UniProt Q9Y5X4); format: functional, cell-based;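 also: CHO-S cells with Gal4-NCOR and VP16-NR2E3 two-hybrid luciferase reporter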
Sequence of Photoreceptor-specific nuclear receptor (Q9Y5X4 whole entry, the tested form may be a part): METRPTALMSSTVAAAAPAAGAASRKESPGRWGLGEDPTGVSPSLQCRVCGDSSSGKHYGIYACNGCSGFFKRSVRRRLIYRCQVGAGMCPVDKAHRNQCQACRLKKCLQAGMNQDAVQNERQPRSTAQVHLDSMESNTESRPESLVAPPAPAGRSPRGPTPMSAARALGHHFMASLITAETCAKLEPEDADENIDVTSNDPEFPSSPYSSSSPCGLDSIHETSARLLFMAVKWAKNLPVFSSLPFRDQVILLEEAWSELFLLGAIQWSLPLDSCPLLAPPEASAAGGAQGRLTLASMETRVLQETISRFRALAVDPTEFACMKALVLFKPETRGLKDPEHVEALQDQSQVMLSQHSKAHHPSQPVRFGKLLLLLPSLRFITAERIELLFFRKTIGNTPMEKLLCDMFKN

Sequence of Glyceraldehyde-3-phosphate dehydrogenase (P04406 whole entry): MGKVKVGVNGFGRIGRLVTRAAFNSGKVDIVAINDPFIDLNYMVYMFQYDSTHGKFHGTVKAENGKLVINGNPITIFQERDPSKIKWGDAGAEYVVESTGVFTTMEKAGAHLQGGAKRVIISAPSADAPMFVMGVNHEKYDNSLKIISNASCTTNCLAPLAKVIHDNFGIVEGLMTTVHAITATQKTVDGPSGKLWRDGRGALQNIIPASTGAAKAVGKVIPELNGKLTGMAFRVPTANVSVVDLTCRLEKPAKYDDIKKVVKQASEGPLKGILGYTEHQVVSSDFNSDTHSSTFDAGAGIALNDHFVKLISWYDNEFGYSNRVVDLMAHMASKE

In the case of O=C(CSc1nnc(-c2ccccc2)n1-c1ccc(Cl)cc1)NNC(=S)Nc1ccccc1, the IC50 [1] is reported as > 122 µM (inactive).
In the case of O=C(O)c1cc(S(=O)(=O)Nc2ccccc2C(=O)O)ccc1O, the IC50 [2] is reported as > 9.99 µM (inactive) and the IC50 [3] is reported as > 100 µM (not active).
In the case of CCOC(=O)N1CCC(NC(=O)c2cc3cc4cc(OC)ccc4nc3o2)CC1, the IC50 [2] is reported as > 0.37 µM (active).
With CCOc1cc(/C=C2\C(=O)N(CCc3ccc(OC)c(OC)c3)C(C)=C2C(=O)OC)ccc1O the IC50 [4] was 118 µM (active) and the CC50 [5] was 100 µM (active).
For Cc1cccc(NC(=O)CN2C(=O)N/C(=C\c3ccc(-c4cccc(C(=O)O)c4)o3)C2=O)c1, the AC50 [6] was 3.6 µM (active).
In the case of CC(C)(C)n1cc(C(=O)c2ccc3ccccc3c2O)cn1, the AC50 [7] is reported as 6.45 µM (active), the AC50 [8] is reported as 14.3 µM (active) and the AC50 [9] is reported as > 52 µM (inactive).
For Cc1ccnc(NC(=O)C2CCN(S(=O)(=O)c3c(C)c(C)cc(C)c3C)CC2)c1, the EC50 [10] was > 67.6 µM (inactive) and the IC50 [11] was 1.85 µM (active).
